Assay results: patent publication US11753363B2, “13-oxidized ingenol derivative and use thereof” (Tianjin Pharmaceutical Da Ren Tang Group Corp., Ltd. …, priority 2017, dated 2023)
Converted amounts (≈) assume the structure as drawn.

Legend:
[1] = test system: A549 (human lung cancer cells); experiment: Inhibition of proliferation of tumor cell lines (MTT), A549; format: cell-based; settings: A549, 72 h; for IC50: Homo sapiens, read-out: IC50 value of compound for inhibition of proliferation of tumor cell lines, A549
Protocol: (§1) In this example, the inhibitory activity of compounds of the present invention against proliferation of seven human tumor cell lines and mouse B16-F10 melanoma cells was tested in vitro, and the IC50 value (50% inhibitory concentration) of compounds against each tumor cell line was calculated.
(§2) The seven human tumor cell lines are: MCF-7 (human breast cancer cells), LOVO (human colon cancer cells), A549 (human lung cancer cells), BGC-823 (human gastric cancer cells), SMMC-7721 (human liver cancer cells), K562 (human leukemia cells), and HeLa (human cervical cancer cells).
(§3) IC50 values of the compounds for A549, BGC-823, LOVO, MCF-7, SMMC-7721, HeLa, and B16-F10 cells were tested. The above cells were routinely cultured in 1640 nutrient solution containing 10% calf serum, with passage for 1 time every 2 days, and the cells in logarithmic growth phase were taken for experiments. After the A549, BGC-823, LOVO, MCF-7, SMMC-7721, HeLa and B16-F10 cells in logarithmic growth phase were subjected to 0.25% trypsin digestion, they were blown into a single cell suspension, and then the cell concentration was adjusted to about 1×10^5·mL^−1 using RPMI 1640 solution containing 10% calf serum. The cells were seeded in a 96-well culture plate at 100 μL per well, and cultured for 24 hours until the cells were attached. K562 cells were taken and centrifuged and diluted into 2×10^5·mL^−1 single cell suspension with RPMI 1640 solution containing 10% calf serum, and inoculated into a 96-well culture plate at 100 μL per well.
(§4) 100 μL of sample solution with different concentrations to be tested were added to the above 96-well plate, each concentration was added to 4 wells in parallel, and the cell control group was added with an equal volume of RPMI 1640 medium containing 10% calf serum to make a reaction volume of 200 μL. After incubating in an incubator at 37° C., 5% CO2 for 72 h, 10 μL of 5 mg·mL^−1 MTT solution was added to each well, and incubated at 37° C. for 4 h. The supernatant was carefully aspirated, 180 μL of DMSO was added to each well followed by shaking, and the absorbance (OD) value was measured at 570 nm on the microplate reader. The inhibition rate was calculated, and regression equation was established with the logarithmic value of the sample concentration and the inhibition rate (IR) to find the IC50 value of the compound against the cells to be tested. IR (%)=(1−OD value of the experimental group/OD value of the cell control group)×100%

[2] = test system: BGC-823 (human gastric cancer cells); experiment: Inhibition of proliferation of tumor cell lines (MTT), BGC-823; format: cell-based; settings: BGC-823, 72 h; for IC50: Homo sapiens, read-out: IC50 value of compound for inhibition of proliferation of tumor cell lines, BGC-823
Protocol: as §1, §2, §3, §4

[3] = test system: LOVO (human colon cancer cells); experiment: Inhibition of proliferation of tumor cell lines (MTT), LOVO; format: cell-based; settings: 72 h; for IC50: Homo sapiens, read-out: IC50 value of compound for inhibition of proliferation of tumor cell lines, LOVO
Protocol: as §1, §2, §3, §4

[4] = test system: K562 (human leukemia cells); experiment: Inhibition of proliferation of tumor cell lines (MTT), K562; format: cell-based; settings: K562, 72 h; for IC50: Homo sapiens, read-out: IC50 value of compound for inhibition of proliferation of tumor cell lines, K562
Protocol: as §1, §2, §3, §4

[5] = test system: SMMC-7721 (human liver cancer cells); experiment: Inhibition of proliferation of tumor cell lines (MTT), SMMC-7721; format: cell-based; settings: SMMC-7721, 72 h; for IC50: Homo sapiens, read-out: IC50 value of compound for inhibition of proliferation of tumor cell lines, SMMC-7721
Protocol: as §1, §2, §3, §4

[6] = test system: MCF-7 (human breast cancer cells); experiment: Inhibition of proliferation of tumor cell lines (MTT), MCF-7; format: cell-based; settings: for IC50: Homo sapiens, MCF7, MCF-7, 72 h, read-out: IC50 value of compound for inhibition of proliferation of tumor cell lines, MCF-7
Protocol: as §1, §2, §3, §4

[7] = test system: HeLa (human cervical cancer cells); experiment: Inhibition of proliferation of tumor cell lines (MTT), HeLa; format: cell-based; settings: 72 h; for IC50: Homo sapiens, read-out: IC50 value of compound for inhibition of proliferation of tumor cell lines, HeLA
Protocol: as §1, §2, §3, §4

[8] = test system: mouse B16-F10 melanoma cells; experiment: Inhibition of proliferation of tumor cell lines (MTT), B16-F10; format: cell-based; settings: B16-F10, 72 h; for IC50: Mus musculus, read-out: IC50 value of compound for inhibition of proliferation of tumor cell lines, B16-F10
Protocol: as §1, §3, §4

[9] = test system: neutrophilic granulocytes; experiment: Neutrophil oxidative burst (luminol chemiluminescence); format: cell-based; settings: rat neutrophils, (Csample−Ccontrol)/Ccontrol×100%; for activation at 0.1 µg/mL: Neutrophil, 0.1 μg/mL, read-out: Efficiency of compounds in stimulating neutrophil oxidative burst
Protocol: This example investigated the effect of compound on neutrophil oxidative burst and calculated the efficiency of each compound in stimulating neutrophil oxidative burst.
Blood was taken from the abdominal aorta of rat. The neutrophilic granulocytes were isolated by the operational procedure of the rat peripheral blood neutrophil isolation kit. The neutrophilic granulocytes were re-suspended by Hanks, and were plated in a 96-well white plate at 1×10^5 cells/well, 80 μL/well; 1 mM of Luminol was added at 10 μL/well; 10 μL of the sample was added to each well, and the degree of oxidative burst was evaluated by chemiluminescence. Calculation formula of Efficiency: Efficiency (%)=(Csample−Ccontrol)/Ccontrol×100%

[10] = test system: release of IL-8 by human keratinocytes (HaCaT); experiment: Release of IL-8 by human keratinocytes (HaCaT), IL-8 Elisa; format: cell-based; settings: 24 h, (Csample−Ccontrol)/Ccontrol×100%
Protocol: This Example investigated the effect of compound on release of IL-8 by human keratinocytes (HaCaT) and calculated the efficiency of each compound in stimulating the release of IL-8 by human keratinocytes (HaCaT).
Hacat cells were cultured in MEM+10% FBS under the conditions of 37° C., 5% CO2, and when the cells reached 80-95% fusion, they were inoculated into a 96-well culture plate (1×10^4 cells/well) at 100 μL/well, and incubated for 18-24 h. The supernatant was discarded and the cells were incubated for 3-6 h in 1% FBS medium. Different concentrations of the sample solution of compound to be tested were added to each well, and the cell control group was added with an equal volume of 1% FBS medium at 10 μL/well, and incubated for 24 h. The supernatant was taken and tested according to the operation sequence of the IL-8 Elisa kit. Calculation formula of Efficiency: Efficiency (%)=(Csample−Ccontrol)/Ccontrol×100%

[11] = test system: B16-F0 mouse melanoma; experiment: Antitumor activity in B16-F0 mouse melanoma model; format: in vivo; settings: female C57BL/6J mice, intradermal B16 tumor, skin administration once per day for 3 days, 20 μL/mouse, tumor weight on day 19
Protocol: This Example investigated the antitumor activity of compounds in B16-F0 mouse melanoma model.
In vitro passage of B16-F0 tumor source was inoculated subcutaneously into female C57BL/6J mice, and passage was carried out after tumor formation. After passage, the subcutaneous tumor tissue of the tumor-bearing mice was taken and ground with 3 times amount of physiological saline to form a tumor cell suspension, and 0.2 mL/mouse of which was inoculated subcutaneously into the axilla of forelimb of mice, which were used as the tumor-source mice. Female C57BL/6J mice were taken and their hair in an area of 4 cm^2 on the neck and back was shaven. After anesthesia with diethyl ether, B16 tumor source was inoculated intradermally at 0.05 mL/mouse. After 3 days of inoculation, the skin was continuously administered for 3 days, once per day, 20 μL/mouse each time, and in the test, a solvent group as a negative control group was included. On the 19th day of the experiment, the experiment was terminated. After the mice were euthanized, the intradermally transplanted tumors were completely separated and excised, and the tumor was weighed to calculate the tumor inhibition rate. Calculation formula of tumor inhibition rate: tumor inhibition rate (%)=(Wmodel group−Wadministration group)/Wmodel group×100%
The tumor growths of the experimental group and the solvent control group were compared to evaluate the antitumor activity of each compound, and the compound with P<0.05 was considered to be effective.

[12] = Homo sapiens, HaCaT, 0.1 μg/mL, read-out: Efficiency of compound in stimulating the release of IL-8 by HaCaT cells

| SMILES | IC50 [1] [µg/mL] | IC50 [2] [µg/mL] | IC50 [3] [µg/mL] | IC50 [4] [µg/mL] | IC50 [5] [µg/mL] | IC50 [6] [µg/mL] | IC50 [7] [µg/mL] | IC50 [8] [µg/mL] | activation at 0.1 µg/mL [9] [%] | activation at 0.1 µg/mL [10, 12] [%] | other results |
| --- | --- | --- | --- | --- | --- | --- | --- | --- | --- | --- | --- |
| CCCCCCCCCCCC(=O)O[C@@]12C[C@@H](C)[C@]34C=C(C)[C@H](OC(=O)C(C)C(C)C)[C@@]3(O)[C@H](O)C(CO)=C[C@H](C4=O)[C@@H]1C2(C)C (stereo partly shown) [3-O-(2,3-dimethylbutyryl)-13-O-dodecanoyl-ingenol] | 11 (≈ 17.1 µM) | 10.4 (≈ 16.1 µM) | 7.6 (≈ 11.8 µM) | 0.12 (≈ 0.186 µM) | 14.5 (≈ 22.5 µM) | 9.05 (≈ 14 µM) | 24.3 (≈ 37.7 µM) | 17.8 (≈ 27.6 µM) | 71.4 | 50 |  |
| C/C=C(/C)C(=O)O[C@H]1C(C)=C[C@]23C(=O)[C@@H](C=C(CO)[C@@H](O)[C@]12O)[C@H]1[C@@H](C[C@H]3C)C1(C)C [3-O-angeloyl-ingenol, reference compound] |  |  |  |  |  |  |  |  |  |  | IC50 value of compound for inhibition of proliferation of tumor cell lines, A549 [1]: 31.2 µg/mL; IC50 value of compound for inhibition of proliferation of tumor cell lines, BGC-823 [2]: 43.5 µg/mL; IC50 value of compound for inhibition of proliferation of tumor cell lines, LOVO [3]: 33.4 µg/mL; IC50 value of compound for inhibition of proliferation of tumor cell lines, K562 [4]: 0.0076 µg/mL; IC50 value of compound for inhibition of proliferation of tumor cell lines, SMMC-7721 [5]: 28.2 µg/mL; IC50 value of compound for inhibition of proliferation of tumor cell lines, MCF-7 ([6]; MCF-7, 72 h): 57.4 µg/mL; IC50 value of compound for inhibition of proliferation of tumor cell lines, HeLA [7]: 49.4 µg/mL; IC50 value of compound for inhibition of proliferation of tumor cell lines, B16-F10 [8]: 38.1 µg/mL; Efficiency of compounds in stimulating neutrophil oxidative burst ([9]; 3 μg/mL): 51.4%; Efficiency of compound in stimulating the release of IL-8 by HaCaT cells ([10]; 0.1 μg/mL): 31.9%; Efficiency of compound in stimulating the release of IL-8 by HaCaT cells ([10]; 1 μg/mL): 41.4% |
| C/C=C(/C)C(=O)O[C@H]1C(C)=C[C@]23C(=O)[C@@H](C=C(CO)[C@@H](O)[C@]12O)[C@@H]1C(C)(C)[C@]1(OC(C)=O)C[C@H]3C [Compound 8, 3-O-angeloyl-13-O-acetyl-ingenol] | > 50 | > 100 | > 50 | 0.0065 (≈ 0.0133 µM) | 96.6 (≈ 198 µM) | > 50 | > 100 |  |  |  | activation at 1 µg/mL ([10]; Homo sapiens, HaCaT, 1 μg/mL, read-out: Efficiency of compound in stimulating the release of IL-8 by HaCaT cells): 38.3%; Tumor-inhibition rate [11]: 90.3% |
| CCCCCCCCCCCC(=O)O[C@@]12C[C@@H](C)[C@]34C=C(C)[C@H](OC(C)=O)[C@@]3(O)[C@H](O)C(CO)=C[C@H](C4=O)[C@@H]1C2(C)C [Compound 10, 3-O-acetyl-13-O-dodecanoyl-ingenol] | 10.7 (≈ 18.2 µM) | 14.7 (≈ 25 µM) | 9.41 (≈ 16 µM) | 0.22 (≈ 0.374 µM) | 13.1 (≈ 22.2 µM) | 16.3 (≈ 27.7 µM) | 10.9 (≈ 18.5 µM) | 21.4 (≈ 36.3 µM) | 111 | 79.5 |  |
